PubChem BioAssay (NCI)
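48-hour exposure; five concentrations; linearly interpolated endpoints. At the GI50, growth is halved. TGI: concentration producing complete growth inhibition.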

What was measured:
Test in all cases: DTP human tumour cell line panel, 48 h
CCRF-CEM leukemia = system: CCRF-CEM leukemia
SNB-75 CNS = system: SNB-75 CNS
A498 renal = system: A498 renal
EKVX NSCLC = system: EKVX NSCLC
LOX IMVI melanoma = system: LOX IMVI melanoma
MALME-3M melanoma = system: MALME-3M melanoma
HT29 colon = system: HT29 colon
MOLT-4 leukemia = system: MOLT-4 leukemia
UO-31 renal = system: UO-31 renal
DU-145 prostate = system: DU-145 prostate

SMILES | TGI (CCRF-CEM leukemia) [µM] | TGI (SNB-75 CNS) [µM] | TGI (A498 renal) [µM] | TGI (EKVX NSCLC) [µM] | TGI (LOX IMVI melanoma) [µM] | TGI (MALME-3M melanoma) [µM] | TGI (HT29 colon) [µM] | TGI (MOLT-4 leukemia) [µM] | TGI (UO-31 renal) [µM] | GI50 (CCRF-CEM leukemia) [µM] | GI50 (SNB-75 CNS) [µM] | GI50 (A498 renal) [µM] | GI50 (EKVX NSCLC) [µM] | GI50 (LOX IMVI melanoma) [µM] | GI50 (MALME-3M melanoma) [µM] | GI50 (HT29 colon) [µM] | GI50 (MOLT-4 leukemia) [µM] | GI50 (UO-31 renal) [µM] | TGI (DU-145 prostate) [µM]
CC(=O)NNc1nc(C)c(C(/C=C/c2ccc(Cl)cc2)=N/NC(=S)NN)s1 | > 100 | > 100 | > 100 | > 100 | > 100 | > 100 | > 100 | > 100 | > 100 |  |  |  |  |  |  |  |  |  | 
CC(=O)OC1C/C(C)=C/[C@H](O)CC(C)/C=C/[C@@]2(C)CCC(C(C)(C)O)C12 (some centres undefined) | > 100 | > 100 | > 100 | > 100 | > 100 | > 100 | > 100 | > 100 | > 100 |  |  |  |  |  |  |  |  |  | 
O=C(Nc1cc([N+](=O)[O-])cc([N+](=O)[O-])c1)OC1C2CCC1C1OC1C2 (centres undefined) | > 50 | > 50 | > 50 | > 50 |  | > 50 |  | > 50 | > 50 |  |  |  |  |  |  |  |  |  | 
C[n+]1ccc2[nH]c3ccccc3c2c1 | > 100 | > 100 | > 100 | > 100 | > 100 | 99.4 | > 100 | > 100 | > 100 |  |  |  |  |  |  |  |  |  | 
CN(/C(=N\O)c1ccccc1)c1ccccc1 |  | 40.8 |  | 74.3 | 75.7 | 84.1 | 87.5 |  | 69.3 |  |  |  |  |  |  |  |  |  | 
N#CNc1nc(C(=O)Nc2ccc(Cl)cc2)cc(-c2ccccc2)n1 |  | > 100 | > 100 | > 100 |  | > 100 | > 100 | > 100 | > 100 |  |  |  |  |  |  |  |  |  | 
CCN1CCC(O)(c2ccc(Cl)c(Cl)c2)C(C(=O)c2ccc(Cl)c(Cl)c2)C1 (centres undefined) | 36.6 | 28.5 | 40.2 | 33.6 | 34 | 33.6 | 32.2 | 32.4 | 31.4 |  |  |  |  |  |  |  |  |  | 
CC(=O)[CH-]C(=O)c1ccccc1.CC(=O)[CH-]C(=O)c1ccccc1.CC[O-].O=C1C=C([O-])C(=O)c2ccccc21.[Ti+4] | > 100 | > 100 | > 100 | > 100 | > 100 | > 100 | > 100 | > 100 | > 100 | 21 | > 100 | 81.1 | 25.9 | 20 | 34.8 | 41 | 58.3 | > 100 | 
CCOC(CN(C)C(=O)OCC(Cl)(Cl)Cl)OCC | > 100 | > 100 |  | > 100 | > 100 |  | > 100 | > 100 | > 100 |  |  |  |  |  |  |  |  |  | > 100
CCc1ccccc1NC(=O)C1=C(C)NC(C)=C(C(=O)Nc2ccccc2CC)C1c1ccc(NC(C)=O)cc1 | 65.8 | > 100 |  | > 100 | 44.2 | > 100 | > 100 | 54.4 | > 100 |  |  |  |  |  |  |  |  |  | 
COc1ccc(CC(C#N)c2cc(OC)c(OC)c(OC)c2)cc1 (centres undefined) | > 100 | > 100 |  | > 100 | > 100 | > 100 | 5.72 | > 100 | > 100 |  |  |  |  |  |  |  |  |  | 1.82
